“And” between values parts separate entries of the source, which are not always exact repeats. Equal entries are not always repeated. Toxic doses and inconclusive results are not listed. How the source made its calls: active means survival T/C of 150% or more; inactive means T/C below 125% in these data.
Tested on: P388 leukemia ip, CD2F1 mice, survival T/C
Experiment: NCI In Vivo Anticancer Drug Screen. Data for tumor model P388 Leukemia (intraperitoneal) in CD2F1 (CDF1) mice
Conditions: endpoint: median survival time, higher = longer survival
Summary of the method: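 Mice carrying the transplanted tumor received test compound or vehicle. Survival was recorded in each group, and the value is the treated-group measurement divided by that of the vehicle-treated control group.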

[1] = dose: 12.5 mg/kg/injection, schedule: Q01DX009 (ip), vehicle: saline
[2] = dose: 50.0 mg/kg/injection, schedule: Q01DX009 (ip), vehicle: saline with Tween-80

Measured: T/C

COc1cc([C@@H]2c3cc4c(cc3[C@@H](OC3OC5COC(C)OC5C(O)C3O)[C@H]3COC(=O)[C@H]23)OCO4)cc(OC)c1O (some centres undefined)
active: dose: 1.0 mg/kg/injection, schedule: Q01DX009 (ip), vehicle: saline 181 % of control | dose: 2.0 mg/kg/injection, schedule: Q01DX009 (ip), vehicle: saline 183 % of control and 217 % of control | dose: 4.0 mg/kg/injection, schedule: Q01DX001 (ip), vehicle: saline with Tween-80 153 % of control | dose: 4.0 mg/kg/injection, schedule: Q01DX009 (ip), vehicle: saline 241 % of control and 300 % of control | dose: 6.24 mg/kg/injection, schedule: Q04DX003 (ip), vehicle: water 177 % of control | dose: 6.48 mg/kg/injection, schedule: Q04DX003 (ip), vehicle: water 178 % of control and 219 % of control | dose: 7.78 mg/kg/injection, schedule: Q04DX003 (ip), vehicle: water 212 % of control | dose: 8.0 mg/kg/injection, schedule: Q01DX001 (ip), vehicle: saline with Tween-80 164 % of control | dose: 8.0 mg/kg/injection, schedule: Q01DX001 (ip), vehicle: saline 180 % of control | dose: 8.0 mg/kg/injection, schedule: Q01DX001 (ip), vehicle: water 162 % of control and 168 % of control | dose: 8.0 mg/kg/injection, schedule: Q08DX002 (ip), vehicle: saline 207 % of control | dose: 10.0 mg/kg/injection, schedule: Q04DX002 (ip), vehicle: suspension in saline 162 % of control | dose: 10.0 mg/kg/injection, schedule: Q04DX003 (ip), vehicle: saline with Tween-80 174 % of control and 190 % of control | dose: 10.4 mg/kg/injection, schedule: Q04DX003 (ip), vehicle: clinical formulation 247 % of control | dose: 10.4 mg/kg/injection, schedule: Q04DX003 (ip), vehicle: water 213 % of control | dose: 10.8 mg/kg/injection, schedule: Q04DX002 (ip), vehicle: water 243 % of control | dose: 10.8 mg/kg/injection, schedule: Q04DX003 (ip), vehicle: water 211 % of control and 281 % of control | dose: 12.0 mg/kg/injection, schedule: Q04DX003 (ip), vehicle: saline 211 % of control | dose: 13.0 mg/kg/injection, schedule: Q04DX002 (ip), vehicle: Klucel (hydroxypropylcellulose) (HPC) 240 % of control | dose: 13.0 mg/kg/injection, schedule: Q04DX003 (ip), vehicle: water 234 % of control | dose: 16.0 mg/kg/injection, schedule: Q08DX002 (ip), vehicle: saline 240 % of control | dose: 17.3 mg/kg/injection, schedule: Q04DX003 (ip), vehicle: clinical formulation 276 % of control | dose: 17.3 mg/kg/injection, schedule: Q04DX003 (ip), vehicle: water 272 % of control | dose: 18.0 mg/kg/injection, schedule: Q04DX002 (ip), vehicle: water 264 % of control | dose: 18.0 mg/kg/injection, schedule: Q04DX003 (ip), vehicle: Klucel (hydroxypropylcellulose) (HPC) 320 % of control and 576 % of control | dose: 20.0 mg/kg/injection, schedule: Q04DX002 (ip), vehicle: suspension in saline 167 % of control | dose: 20.0 mg/kg/injection, schedule: Q04DX003 (ip), vehicle: saline with Tween-80 183 % of control and 190 % of control | dose: 21.6 mg/kg/injection, schedule: Q04DX002 (ip), vehicle: Klucel (hydroxypropylcellulose) (HPC) 280 % of control | dose: 21.6 mg/kg/injection, schedule: Q04DX002 (ip), vehicle: water 235 % of control | dose: 21.6 mg/kg/injection, schedule: Q04DX003 (ip), vehicle: water 398 % of control | dose: 27.0 mg/kg/injection, schedule: Q04DX003 (ip), vehicle: Klucel (hydroxypropylcellulose) (HPC) 436 % of control and 567 % of control | dose: 28.8 mg/kg/injection, schedule: Q04DX003 (ip), vehicle: clinical formulation 419 % of control | dose: 28.8 mg/kg/injection, schedule: Q04DX003 (ip), vehicle: water 304 % of control | dose: 30.0 mg/kg/injection, schedule: Q04DX002 (ip), vehicle: water 441 % of control | dose: 30.0 mg/kg/injection, schedule: Q04DX003 (ip), vehicle: water 333 % of control and 358 % of control | dose: 32.0 mg/kg/injection, schedule: Q08DX002 (ip), vehicle: saline 285 % of control | dose: 36.0 mg/kg/injection, schedule: Q04DX002 (ip), vehicle: Klucel (hydroxypropylcellulose) (HPC) 290 % of control | dose: 36.0 mg/kg/injection, schedule: Q04DX002 (ip), vehicle: water 445 % of control | dose: 36.0 mg/kg/injection, schedule: Q04DX003 (ip), vehicle: water 416 % of control | dose: 40.0 mg/kg/injection, schedule: Q04DX002 (ip), vehicle: suspension in saline 218 % of control | dose: 40.0 mg/kg/injection, schedule: Q04DX003 (ip), vehicle: Klucel (hydroxypropylcellulose) (HPC) 436 % of control and 576 % of control | dose: 40.0 mg/kg/injection, schedule: Q04DX003 (ip), vehicle: saline with Tween-80 223 % of control and 257 % of control | dose: 50.0 mg/kg/injection, schedule: Q04DX002 (ip), vehicle: water 372 % of control | dose: 60.0 mg/kg/injection, schedule: Q04DX002 (ip), vehicle: water 354 % of control | dose: 60.0 mg/kg/injection, schedule: Q04DX003 (ip), vehicle: Klucel (hydroxypropylcellulose) (HPC) 576 % of control | dose: 60.0 mg/kg/injection, schedule: Q04DX003 (ip), vehicle: water 416 % of control | dose: 64.0 mg/kg/injection, schedule: Q08DX002 (ip), vehicle: saline 247 % of control | dose: 83.3 mg/kg/injection, schedule: Q04DX002 (ip), vehicle: water 441 % of control | dose: 96.0 mg/kg/injection, schedule: Q01DX001 (ip), vehicle: water 238 % of control and 329 % of control | dose: 100.0 mg/kg/injection, schedule: Q04DX002 (ip), vehicle: water 445 % of control
inactive: dose: 5.0 mg/kg/injection, schedule: Q04DX003 (ip), vehicle: saline with Tween-80 122 % of control | dose: 64.0 mg/kg/injection, schedule: Q01DX005 (ip), vehicle: saline 105 % of control and 86 % of control and 88 % of control | dose: 100.0 mg/kg/injection, schedule: Q04DX002 (ip), vehicle: Klucel (hydroxypropylcellulose) (HPC) 89 % of control | dose: 128.0 mg/kg/injection, schedule: Q01DX001 (ip), vehicle: saline with Tween-80 77 % of control and 89 % of control | dose: 128.0 mg/kg/injection, schedule: Q08DX002 (ip), vehicle: saline 98 % of control

NC(=S)NNC(=O)c1cccs1
inactive: dose: 60.0 mg/kg/injection, schedule: Q01DX005 (ip), vehicle: saline with Tween-80 108 % of control | dose: 120.0 mg/kg/injection, schedule: Q01DX005 (ip), vehicle: saline with Tween-80 100 % of control | dose: 240.0 mg/kg/injection, schedule: Q01DX005 (ip), vehicle: saline with Tween-80 99 % of control

NSC(=S)NCc1ccco1
inactive: dose: 50.0 mg/kg/injection, schedule: Q01DX005 (ip), vehicle: Klucel (hydroxypropylcellulose) (HPC) 106 % of control and 107 % of control | dose: 100.0 mg/kg/injection, schedule: Q01DX005 (ip), vehicle: Klucel (hydroxypropylcellulose) (HPC) 101 % of control and 115 % of control | dose: 200.0 mg/kg/injection, schedule: Q01DX005 (ip), vehicle: Klucel (hydroxypropylcellulose) (HPC) 115 % of control and 119 % of control

COc1cc2cc[n+]3c(C)c4cc5c(cc4cc3c2cc1OC)OCO5 (tested in a mixture with another compound)
active: dose: 8.33 mg/kg/injection, schedule: Q01DX009 (ip), vehicle: saline 166 % of control | [1] 175 % of control | dose: 18.7 mg/kg/injection, schedule: Q01DX009 (ip), vehicle: saline 198 % of control
inactive: dose: 0.88 mg/kg/injection, schedule: Q01DX009 (ip), vehicle: saline 124 % of control

CCN(CC)CCNc1ccccc1
inactive: dose: 60.0 mg/kg/injection, schedule: Q01DX005 (ip), vehicle: saline 99 % of control | dose: 120.0 mg/kg/injection, schedule: Q01DX005 (ip), vehicle: saline 99 % of control

O=C(N=Nc1c(Cl)c(O)c2ccccc2c1O)c1ccccc1O
inactive: dose: 6.25 mg/kg/injection, schedule: Q01DX009 (ip), vehicle: saline with Tween-80 100 % of control | dose: 12.5 mg/kg/injection, schedule: Q01DX009 (ip), vehicle: saline with Tween-80 108 % of control | dose: 25.0 mg/kg/injection, schedule: Q01DX009 (ip), vehicle: saline with Tween-80 106 % of control | [2] 104 % of control and 115 % of control

C[N+]1(C)CCOCC1
inactive: dose: 1.56 mg/kg/injection, schedule: Q01DX009 (ip), vehicle: saline 94 % of control | dose: 6.25 mg/kg/injection, schedule: Q01DX009 (ip), vehicle: saline 100 % of control and 101 % of control | [1] 98 % of control | dose: 25.0 mg/kg/injection, schedule: Q01DX009 (ip), vehicle: saline 88 % of control

O=C(/C(=C(\C(=O)c1ccccc1)c1ccccc1)c1ccccc1)c1ccccc1
inactive: [2] 99 % of control | dose: 100.0 mg/kg/injection, schedule: Q01DX009 (ip), vehicle: saline with Tween-80 92 % of control | dose: 200.0 mg/kg/injection, schedule: Q01DX009 (ip), vehicle: saline with Tween-80 87 % of control | dose: 400.0 mg/kg/injection, schedule: Q01DX009 (ip), vehicle: saline with Tween-80 86 % of control
